pIC50: −log10 of the molar value. Like-named read-outs stand apart in the source and are kept apart here. Where only a bound is given, the exact number is not on record here.

Drawing on US11384055B2 (BIOMARIN PHARMACEUTICAL INC., priority 2017, dated 2022), this text covers IC50 for 18 compounds.

The assay addresses T1, Human GO (Homo sapiens, UniProt Q9UJM8).
T1 construct: purchased Novus Biologicals NBP1-72412
T1 sequence (Q9UJM8 1-370): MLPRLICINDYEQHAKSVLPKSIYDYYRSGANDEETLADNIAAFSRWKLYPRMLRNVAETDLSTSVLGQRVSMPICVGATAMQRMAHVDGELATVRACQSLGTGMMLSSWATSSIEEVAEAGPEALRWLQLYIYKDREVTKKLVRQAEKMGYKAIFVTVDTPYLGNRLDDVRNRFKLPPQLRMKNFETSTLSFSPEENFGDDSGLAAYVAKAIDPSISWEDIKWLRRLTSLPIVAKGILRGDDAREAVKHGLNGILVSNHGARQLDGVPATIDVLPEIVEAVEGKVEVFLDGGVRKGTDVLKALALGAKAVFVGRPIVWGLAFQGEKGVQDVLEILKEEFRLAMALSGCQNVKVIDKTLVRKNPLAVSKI
Briefly: GO enzymatic assay (coupled fluorescence/HRP assay, glycolate substrate). The format is biochemical. In a few lines:
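Coupled HRP/fluorescence read-out of glycolate oxidation by human GO in 50 mM potassium phosphate buffer (pH 7). Inhibitors added across a concentration range.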

Setting [1] is: Table 1, read-out: Range (range of IC50 values calculated from the enzymatic assays).

As a reminder, the pIC50 is the IC50 on a negative log10 scale, so that one unit is a factor of ten. Take `O=C(O)c1[nH]nnc1Oc1ccc2ncccc2c1` [Compound 120, 4-(quinolin-6-yloxy)-1H-1,2,3-triazole-5-carboxylic acid 2,2,2-trifluoroacetate]: the negative-log IC50 (pIC50) under setting [1] was 6.00 to 7.00.
On the same count and under the same terms, next, `O=C(O)c1[nH]nnc1Oc1ccc2cnccc2c1` [Compound 121, 4-(isoquinolin-6-yloxy)-1H-1,2,3-triazole-5-carboxylic acid 2,2,2-trifluoroacetate]: 6.00 to 7.00; `O=C(O)c1[nH]nnc1Oc1ccc(-c2ccc3ncccc3c2)cc1` [Compound 122, 5-(4-(quinolin-6-yl)phenoxy)-1H-1,2,3-triazole-4-carboxylic acid]: greater than 7.00.
The same measure, in the same setting: then `O=C(O)c1[nH]nnc1-c1csc(-c2ccc(Cl)c(Cl)c2)n1` [Compound 124, 4-(2-(3,4-dichlorophenyl)thiazol-4-yl)-1H-1,2,3-triazole-5-carboxylic acid], with greater than 7.00.
In the case of `O=C(O)c1[nH]nnc1-c1ccc(Cl)c(Cl)c1` [Compound 125, 4-(3,4-dichlorophenyl)-1H-1,2,3-triazole-5-carboxylic acid], the pIC50 is greater than 7.00.
In the case of `O=C(O)c1[nH]nnc1-c1ccc(-c2ccc(Cl)cc2)cc1` [Compound 126, 2,2,2-trifluoroacetate], the negative logarithm of the IC50 (pIC50) was greater than 7.00.
`O=C(O)c1[nH]nnc1-c1ccc(Oc2ccc(Cl)cc2)cc1` [Compound 127, 4-(4-(4-chlorophenoxy)phenyl)-1H-1,2,3-triazole-5-carboxylic acid]: the pIC50 under setting [1] is greater than 7.00.
Take `O=C(O)c1[nH]nnc1-c1ccc(-c2ccc(OC(F)(F)F)cc2)cc1` [Compound 128]: the pIC50 was 6.00 to 7.00.
As to `O=C(O)c1[nH]nnc1-c1cccc(-c2ccc(Cl)c(Cl)c2)c1` [Compound 129, 4-(3′,4′-dichloro-[1,1′-biphenyl]-3-yl)-1H-1,2,3-triazole-5-carboxylic acid], the pIC50 under setting [1] was greater than 7.00.
In the case of `O=C(O)c1[nH]nnc1-c1ccc(-c2ccc(Cl)cc2)c(Cl)c1` [Compound 130, 2,2,2-trifluoroacetate], the negative logarithm of the IC50 (pIC50) was greater than 7.00.
For the compound `O=C(O)c1[nH]nnc1-c1cccc(Oc2ccc(Cl)c(Cl)c2)c1` [Compound 131, 4-(3-(3,4-dichlorophenoxy)phenyl)-1H-1,2,3-triazole-5-carboxylic acid 2,2,2-trifluoroacetate], the pIC50 under setting [1] was greater than 7.00.
Same read-out and setting: next, `O=C(O)c1[nH]nnc1-c1ccc2cc(Cl)ccc2n1` [Compound 132, 4-(6-chloroquinolin-2-yl)-1H-1,2,3-triazole-5-carboxylic acid 2,2,2-trifluoroacetate]: greater than 7.00.
Regarding `O=C(O)c1[nH]nnc1-c1ccc2cc(Cl)ccc2c1` [Compound 133, 4-(6-chloronaphthalen-2-yl)-1H-1,2,3-triazole-5-carboxylic acid], the pIC50 was greater than 7.00.
As for `O=C(O)c1[nH]nnc1-c1nccc2ccc(Cl)cc12` [Compound 134, 4-(7-chloroisoquinolin-1-yl)-1H-1,2,3-triazole-5-carboxylic acid], the pIC50 under setting [1] was less than 5.00.
For the compound `O=C(O)c1[nH]nnc1-c1cccc(OC(F)(F)F)c1` [Compound 135, 4-(3-(trifluoromethoxy)phenyl)-1H-1,2,3-triazole-5-carboxylic acid], the pIC50 was greater than 7.00.
Turning to `O=C(O)c1[nH]nnc1-c1ccc(OC(F)(F)F)cc1` [Compound 136, 4-(4-(trifluoromethoxy)phenyl)-1H-1,2,3-triazole-5-carboxylic acid], the pIC50 under setting [1] was 6.00 to 7.00.
On the same count and under the same terms, next, `O=C(O)c1[nH]nnc1-c1ccc(OCC2CCCC2)cc1` [Compound 137, 4-(4-(cyclopentylmethoxy)phenyl)-1H-1,2,3-triazole-5-carboxylic acid]: 6.00 to 7.00.
With `O=C(O)c1[nH]nnc1-c1ccc(OC2CCCC2)cc1` [Compound 138, 4-(4-(cyclopentyloxy)phenyl)-1H-1,2,3-triazole-5-carboxylic acid], the pIC50 under setting [1] is 6.00 to 7.00.
